Consider one compound from US20250241931A1, “METHODS OF TREATING A SUBJECT HAVING CLINICALLY SIGNIFICANT SIGNS AND SYMPTOMS ASSOCIATED WITH BLOOD CELL DIFFERENTIATION” (FOGHORN THERAPEUTICS INC., priority 2022, published 2025).

In this data set the test system is subjects with advanced hematologic malignancies (R/R AML or MDS). Nature of the data set: ascending multiple dose escalation clinical trial (safety and tolerability, oral administration). The data set is classed as in vivo, human. The following applies: ongoing study. The method, then: An ascending multiple dose escalation clinical trial of the compound shown below is conducted. It is primarily intended to evaluate the safety and tolerability of the compound shown below when administered orally to subjects with advanced hematologic malignancies, specifically relapsed or refractory acute myeloid leukemia (R/R AML) or myelodysplastic syndrome (MDS).
In this ongoing study, clinically significant signs and symptoms associated with blood cell differentiation have been reported for one of 21 subjects with acute myeloid leukemia treated with the compound shown above. This occurred approximately 7-14 days into the treatment with the compound shown above.

SMILES strings stand for the structures.

Turning to `COC[C@H](NC(=O)c1ccn(S(C)(=O)=O)c1)C(=O)Nc1nc(-c2cccc(N3C[C@@H](C)O[C@@H](C)C3)n2)cs1`, the “subjects with clinically significant signs and symptoms associated with blood cell differentiation” value (subjects with acute myeloid leukemia treated orally with the compound) was “one of 21”. For the same compound, the “time of occurrence of the clinically significant signs and symptoms associated with blood cell differentiation, into the treatment” value (the one affected subject with acute myeloid leukemia) was 7 to 14 days.
